Results on one molecule are retold here after ChEMBL document CHEMBL6109178, “Species-Dependent Metabolism of a Covalent nsP2 Protease Inhibitor with In Vivo Antialphaviral Activity” (J Med Chem, 2025).

SMILES strings stand for the structures. Active and inactive are the calls of the source. No cut-off for these calls is given here.

What all share (format): functional, organism-based
Assay [1] deals with Chikungunya virus. Kind of assay: Antiviral activity against CHIKV infected in male C57BL/6 mouse assessed as reduction in viral level in left foot at 100 mg/kg, administered three times a day and measured after 48 hrs.
The test system of assay [2] is Chikungunya virus. Briefly: Antiviral activity against CHIKV infected in male C57BL/6 mouse assessed as reduction in viral level in left quad at 100 mg/kg, administered three times a day and measured after 48 hrs.
The subject of assay [3] is Chikungunya virus. Kind of assay: Antiviral activity against CHIKV infected in male C57BL/6 mouse assessed as reduction in viral level in right quad at 100 mg/kg, administered three times a day and measured after 48 hrs.
Assay [4] concerns Chikungunya virus. Kind of assay: Antiviral activity against CHIKV infected in male C57BL/6 mouse assessed as reduction in viral level in spleen at 100 mg/kg, administered three times a day and measured after 48 hrs.
Assay [5] deals with Chikungunya virus. Kind of assay: Antiviral activity against CHIKV infected in male C57BL/6 mouse assessed as reduction in viral level in right foot at 100 mg/kg, administered three times a day and measured after 48 hrs.
Assay [6] relates to Chikungunya virus. Briefly: Antiviral activity against CHIKV infected in male C57BL/6 mouse assessed as reduction in viral level in serum at 100 mg/kg, administered three times a day and measured after 48 hrs.

As to `CCOc1ccccc1-c1cc(C(=O)NC/C=C/S(C)(=O)=O)n[nH]1`, the outcome in the assay on Chikungunya virus [1] was inactive. Besides, the outcome with Chikungunya virus [2], with Chikungunya virus [3] and in the assay on Chikungunya virus [4] was Active. Further, the values for the Activity entry in the assay on Chikungunya virus [5] and in the assay on Chikungunya virus [6] were “Active; Viral Level Reduced In 4 Out Of 5 Mouse” and “Active; Reduction Of Small Level Of Virus Level Observed”, respectively.
